Test results as given in patent US6391871B1 (priority 1996, dated 2002).
Entries after “also recorded” stand apart in the source; their conditions may differ. Like-named read-outs stand apart in the source and are kept apart here.

Experiments:
[1] = system: vacuolated PC/RS neurons; experiment: Safener assay: prevention of MK-801-induced vacuole formation in PC/RS neurons; details: for ED50: 4 h; for blocking of MK-801 neurotoxicity / vacuole formation: tested against MK-801
Experimental: For each test agent, at least 5 dosages of the candidate safener agent were tested, and at least 4 rats were used in each dosage group.
The rats were sacrificed four hours after treatment, for histopathological evaluation. The number of vacuolated PC/RS neurons were counted on each side of the brain, at a rostrocaudal level immediately posterior to where the corpus callosum ceases decussating across the midline (approximately 5.6 mm caudal to bregma).
The result was subtracted from one and multiplied by 100, to calculate a percentage.
The confidence limits, in the right column, were the safener dosages that reduced vacuoles by 25% and 75%.

[2] = system: NMDA receptors; format: cell-based, chick
Experimental: Potency rating=minimum concentration required to provide total protection against neurotoxic effects of NMDA (40 μM) in chick embryo retinal tissue tests
These experiments were performed using segments of chick embryo retina. This is a widely used model for studying the production and prevention of excitotoxic phenomena, since it is a simple and inexpensive preparation, and since chick tissue provides a better model of adult mammalian neurons than embryonic or juvenile mammalian tissue. All of the glutamate receptors that mediate excitotoxic phenomena are present in chick retinas, and are sensitive to excitotoxic stimulation. By contrast, in embryonic or juvenile mammalian tissue, various glutamate receptors are not fully matured and are not responsive in the same ways that occur in adult mammalian tissue.
In these tests, NMDA is introduced into the incubation medium in a concentration ([…]) sufficient to produce a fully developed excitotoxic lesion within 30 min, displaying acute degeneration and necrosis of the majority of neurons in the inner layers of the retina. The control retinas are incubated with NMDA alone, and experimental retinas are incubated with NMDA plus a test compound that is being evaluated for NMDA antagonist properties. […] All agents that prevent NMDA from hyperactivating NMDA receptors and thereby inducing an excitotoxic neurodegenerative reaction in the chick embryo retina are considered appropriate candidate drugs for preventing NMDA receptor hyperactivation and NMDA receptor burnout in the presymptomatic stages of Alzheimer's disease.
The concentration of the test compound required to prevent NMDA from inducing neuronal degeneration in the chick retina tissue is considered a measure of its expected potency for preventing NMDA receptor hyperactivation and NMDA receptor burnout in the presymptomatic stages of Alzheimer's disease.

[3] = system: NMDA receptors in the hypothalamus; experiment: NMDA receptor hyperactivation in the hypothalamic-pituitary neuroendocrine regulatory system; details: for damage to the reproductive regulatory (NMDA receptor) system: high dose, rats
Experimental: The explanation for this is that normally, neurons in the hypothalamus that have NMDA receptors on their surface are activated by the excitatory transmitter, glutamate, which causes them to send a message to the pituitary resulting in pituitary release of LH. When NMDA is administered, it enters the hypothalamus and mimics glutamate by acting at the same NMDA receptors that glutamate would activate. This triggers the same sequence of events that glutamate would normally trigger. The action of glutamate at these NMDA receptors represents a physiological mechanism by which glutamate normally regulates the amount of reproductive hormones (e.g., LH) that circulate in the blood. For a detailed review describing this neuroendocrine regulatory system, see Olney and Price 1978.
These excitotoxic molecules (NMDA or glutamate) enter the hypothalamus and hyperactivate NMDA receptors so vigorously and continuously that it destroys the NMDA receptor system, and leaves it permanently unresponsive to subsequent stimulation, either by exogenously administered NMDA, or by endogenous glutamate.
Affected animals develop a neuroendocrine deficiency syndrome, which leads to symptoms such as obesity, sterility, and ongoing degeneration of their reproductive organs.

[4] = system: pyramidal neurons in layers III and IV of the posterior cingulate and retrosplenial (PC/RS) cortices; experiment: In vivo assay of toxic side effects of NMDA antagonists (vacuole formation in PC/RS cortex)
[5] = system: sigma receptors; details: cited from earlier work
[6] = system: pyramidal neurons in layers III and IV of the posterior cingulate and retrosplenial (PC/RS) cortices; details: rat, in vivo; for neurotoxic (vacuole) reaction in PC/RS cortex, drug by itself: ip
[7] = system: cerebrocortical neurons; details: Olney et al 1989, Corso et al 1994; cited from earlier work
[8] = NMDA 40 μM, chick embryo retinal tissue
[9] = dose reducing mean number of vacuolated PC/RS neurons to 50% of MK-801 (0.5 mg/kg sc) controls, rats

Q: Which ED50 ([1]; Rattus norvegicus, Neuron, sc) does the source give for `CN1CCN(C2=Nc3cc(Cl)ccc3Nc3ccccc32)CC1` [Clozapine] here?
A: 2.8 mg/kg

Q: Which “POTENCY RATING = minimum concentration required to provide total protection against neurotoxic effects of NMDA” value [2] does the source give for `CC(C(O)c1ccc(O)cc1)N1CCC(Cc2ccccc2)CC1` (centres unmarked) [Ifenprodil] here?
A: 50 µM

Q: For `CCCC(C)C1(CC)C(=O)NC(=O)NC1=O` (centres unmarked) [Pentobarbital], which ED50 ([1]; Rattus norvegicus, Neuron, sc) is on record?
A: 13.1 mg/kg

Q: For `O=C(O)C1CN(CCCP(=O)(O)O)CCN1` (centres unmarked) [CPP], which “POTENCY RATING = minimum concentration required to provide total protection against neurotoxic effects of NMDA” value [2, 8] is on record?
A: 10 µM

Q: With `FC(F)OC(Cl)C(F)(F)F` (centres unmarked) [isoflurane] as the compound, how does the “blocking of MK-801 neurotoxicity / vacuole formation” value [1] read?
A: effectively block vacuole formation

Q: For `COc1cc(CC(C)N)c(OC)cc1I` (centres unmarked) [DOI], which ED50 [1, 9] is on record?
A: 1.05 mg/kg, ip

Q: With `OC(CCN1CCCC1)(c1ccccc1)C1CCCCC1` (centres unmarked) [Procyclidine] as the compound, how does the “POTENCY RATING = minimum concentration required to provide total protection against neurotoxic effects of NMDA” value [2, 8] read?
A: 15 µM

Q: Which “POTENCY RATING = minimum concentration required to provide total protection against neurotoxic effects of NMDA” value [2, 8] does the source give for `O=C(O)[C@@H]1C[C@H](CP(=O)(O)O)CCN1` [CGS 19755] here?
A: 5 µM

Q: For `CC(C)c1cccc(C(C)C)c1O` [propofol], which “blocking of MK-801 neurotoxicity / vacuole formation” value [1] is on record?
A: effectively block vacuole formation

Q: With `N#Cc1cc2[nH]c(=O)c(=O)[nH]c2cc1[N+](=O)[O-]` [CNQX] as the compound, how does the “POTENCY RATING = minimum concentration required to provide total protection against neurotoxic effects of NMDA” value [2] read?
A: 200 µM

Q: Which ED50 ([1]; Rattus norvegicus, Neuron, sc) does the source give for `CN1C(=O)CN=C(c2ccccc2)c2cc(Cl)ccc21` [Diazepam] here?
A: 1 mg/kg

Q: For `COc1cc(CC(C)N)c(OC)cc1Br` (centres unmarked) [DOB], which ED50 [1, 9] is on record?
A: 0.36 mg/kg, ip

Q: For `CN[C@H](CC(=O)O)C(=O)O` [NMDA, n-methyl-D-aspartate], which “pituitary secretion of reproductive hormones (LH)” value ([3]; NMDA subcutaneously or intravenously, rodents) is on record?
A: causing the pituitary gland to secrete into the blood certain reproductive hormones such as luteinizing hormone

Q: And the “damage to the reproductive regulatory (NMDA receptor) system” value [3]?
A: permanently damage and inactivate this reproductive regulatory system

Q: With `Clc1cc(I)cc(Cl)c1NC1=NCCN1` [p-Iodoclonidine] as the compound, how does the ED50 [1, 9] read?
A: 1.3 mg/kg, ip

Q: Which ED50 ([1]; Rattus norvegicus, Neuron, sc) does the source give for `CN1CCN(C2=Nc3cc(F)ccc3Cc3ccccc32)CC1` [Fluperlapine] here?
A: 2.4 mg/kg

Q: With `C=CCC1(C(C)CCC)C(=O)NC(=O)NC1=O` (centres unmarked) [Secobarbital] as the compound, how does the ED50 ([1]; Rattus norvegicus, Neuron, sc) read?
A: 15.3 mg/kg

Q: Which ED50 ([1]; Rattus norvegicus, Neuron, sc) does the source give for `CC(Oc1c(Cl)cccc1Cl)C1=NCCN1` (centres unmarked) [Lofexidine] here?
A: 0.38 mg/kg

Q: Which ED50 ([1]; Rattus norvegicus, Neuron, sc) does the source give for `CSc1ccc2c(c1)N(CCC1CCCCN1C)c1ccccc1S2` (centres unmarked) [Thioridazine] here?
A: 55.3 mg/kg

Q: With `Cc1cc2c(s1)Nc1ccccc1N=C2N1CCN(C)CC1` [Olanzapine] as the compound, how does the ED50 ([1]; Rattus norvegicus, Neuron, sc) read?
A: 0.6 mg/kg

Q: Which “damage to the reproductive regulatory (NMDA receptor) system” value [3] does the source give for `N[C@@H](CCC(=O)O)C(=O)O` [glutamate] here?
A: permanently damage and inactivate this reproductive regulatory system

Q: With `CN1[C@@H]2CC[C@H]1C[C@@H](OC(c1ccccc1)c1ccccc1)C2` [Benztropine] as the compound, how does the ED50 ([1]; Rattus norvegicus, Neuron, sc) read?
A: 1.29 mg/kg

Q: Which “POTENCY RATING = minimum concentration required to provide total protection against neurotoxic effects of NMDA” value [2, 8] does the source give for `COc1ccc2c(c1)[C@]13CCCC[C@@H]1[C@H](C2)N(C)CC3` [Dextromethorphan] here?
A: 25 µM

Q: Which results are given for `OC(CN1CCC(Cc2ccc(F)cc2)CC1)c1ccc(Cl)cc1` (centres unmarked) [Eliprodil]?
A: nearly a lethal dose (highest dose tested) ([4]; rats): 100 mg/kg/ip; binding at sigma receptors [5]: strong binding activity at sigma receptors; NMDA antagonist properties in the chick retina assay [2]: definite NMDA antagonist properties; POTENCY RATING = minimum concentration required to provide total protection against neurotoxic effects of NMDA [2]: 30 µM; neurotoxic (vacuole) reaction in PC/RS cortex, drug by itself ([6]; female, Sprague Dawley, 4 h): neither SKF (+)10,047 by itself, nor eliprodil by itself, caused a vacuole reaction; neurotoxic reaction in the PC/RS cortex at the highest dose tested [6]: did not cause a neurotoxic reaction; neurotoxic (vacuole) reaction in PC/RS cortex, drug by itself [6]: did not cause this neurotoxic reaction

Q: Which ED50 ([1]; Rattus norvegicus, Neuron, sc) does the source give for `N=C(N)N/N=C/c1c(Cl)cccc1Cl` [Guanabenz] here?
A: 0.21 mg/kg

Q: Which “binding at sigma receptors” value [5] does the source give for Ibogaine here?
A: strong binding affinity at sigma receptors

Q: And the “NMDA antagonist properties in the chick retina assay” value [2]?
A: definite NMDA antagonist properties

Q: And the “POTENCY RATING = minimum concentration required to provide total protection against neurotoxic effects of NMDA” value [2, 8]?
A: 15 µM

Q: With `Clc1cccc(Cl)c1N=C1NCCN1` [Clonidine] as the compound, how does the ED50 ([1]; Rattus norvegicus, Neuron, sc) read?
A: 0.044 mg/kg

Q: For `C[C@@H]1CN(CCCn2c3ccccc3c3ccccc32)C[C@H](C)N1` [Rimcazole], which ED50 ([1]; Rattus norvegicus, Neuron, sc) is on record?
A: 17.8 mg/kg

Q: Which “POTENCY RATING = minimum concentration required to provide total protection against neurotoxic effects of NMDA” value [2, 8] does the source give for `O=[N+]([O-])c1cc2nc(O)c(O)nc2cc1[N+](=O)[O-]` [DNQX] here?
A: 100 µM

Q: For `CN1[C@@H]2C[C@@H](OC(=O)[C@H](CO)c3ccccc3)C[C@H]1[C@@H]1O[C@@H]12` [Scopolamine], which ED50 ([1]; Rattus norvegicus, Neuron, sc) is on record?
A: 0.13 mg/kg

Q: With `O=C(O)c1cc(O)c2ccc(Cl)cc2n1` [7-CL-Kynurenic acid, 7-chloro-kynurenic acid] as the compound, how does the “POTENCY RATING = minimum concentration required to provide total protection against neurotoxic effects of NMDA” value [2] read?
A: 50 µM

Q: Which “pathological changes in cerebral cortex / corticolimbic regions of adult rats” value [7] does the source give for `CCNC1(c2cccs2)CCCCC1=O` (centres unmarked) [Tiletamine] here?
A: cause pathological changes in the cerebral cortex of adult rats

Q: And the “POTENCY RATING = minimum concentration required to provide total protection against neurotoxic effects of NMDA” value [2, 8]?
A: 5 µM

Q: Which “blocking of MK-801 neurotoxicity / vacuole formation” value [1] does the source give for `CCN(CC)C(=O)N[C@H]1C=C2c3cccc4[nH]cc(c34)C[C@H]2N(C)C1` [Lisuride] here?
A: block MK-801 toxicity

Q: With `C[C@]12N[C@H](Cc3ccccc31)c1ccccc12` [MK-801, (+)-5-methyl-10,11-dihydro-5H-di[a,d]-cyclohepten-5,10-imine] as the compound, how does the “neurotoxic reaction induced by MK-801” value ([1]; MK-801 0.5 mg/kg sc, all treated rats) read?
A: fully developed neurotoxic reaction

Q: Which “POTENCY RATING = minimum concentration required to provide total protection against neurotoxic effects of NMDA” value [2, 8] does the source give for `N[C@H](CCCP(=O)(O)O)C(=O)O` [D-AP5, D-2-amino-5-phosphonopentanoic acid] here?
A: 25 µM

Q: Which ED50 ([1]; Rattus norvegicus, Neuron, sc) does the source give for `OC(CCN1CCCCC1)(c1ccccc1)C1CCCCC1` (centres unmarked) [Trihexyphenidyl] here?
A: 2.14 mg/kg

Q: And the “binding at sigma receptors” value [5]?
A: strong binding affinity not only to muscarinic receptors, but also to sigma receptors

Q: For `C=CCN1CC[C@]2(C)c3cc(O)ccc3C[C@H]1[C@H]2C` [SKF (+)10,047], which “neurotoxic (vacuole) reaction in PC/RS cortex, drug by itself” value ([4]; adult female rats, ip, sacrificed four hours after treatment) is on record?
A: neither SKF (+)10,047 by itself, nor eliprodil by itself, caused a vacuole reaction; also recorded: neither SKF (+)10,047 nor ibogaine by itself caused vacuoles

Q: Which ED50 ([1]; Rattus norvegicus, Neuron, sc) does the source give for `O=C(CCCN1CCC(O)(c2ccc(Cl)cc2)CC1)c1ccc(F)cc1` [Haloperidiol] here?
A: 5.1 mg/kg

Q: For `FC(F)(F)C(Cl)Br` (centres unmarked) [halothane], which “blocking of MK-801 neurotoxicity / vacuole formation” value [1] is on record?
A: effectively block vacuole formation
